In PMC3261128, “Modulation of phosphofructokinase (PFK) from Setaria cervi, a bovine filarial parasite, by different effectors and its interaction with some antifilarials” (2011):

What was measured:
Format in all cases: biochemical
[1] = test system: T1, Phosphofructokinase (PFK); settings: 5000 µM
T1 construct: native enzyme purified from adult female worms

[2] = target: T2, rat liver PFK (phosphofructokinase) (Rattus norvegicus, UniProt P30835); assay: coupled enzyme assay (NADH oxidation), Ki and Hill plot
T2 construct: gene Pfkl; native enzyme partially purified from rat liver
T2 sequence (P30835 2-780): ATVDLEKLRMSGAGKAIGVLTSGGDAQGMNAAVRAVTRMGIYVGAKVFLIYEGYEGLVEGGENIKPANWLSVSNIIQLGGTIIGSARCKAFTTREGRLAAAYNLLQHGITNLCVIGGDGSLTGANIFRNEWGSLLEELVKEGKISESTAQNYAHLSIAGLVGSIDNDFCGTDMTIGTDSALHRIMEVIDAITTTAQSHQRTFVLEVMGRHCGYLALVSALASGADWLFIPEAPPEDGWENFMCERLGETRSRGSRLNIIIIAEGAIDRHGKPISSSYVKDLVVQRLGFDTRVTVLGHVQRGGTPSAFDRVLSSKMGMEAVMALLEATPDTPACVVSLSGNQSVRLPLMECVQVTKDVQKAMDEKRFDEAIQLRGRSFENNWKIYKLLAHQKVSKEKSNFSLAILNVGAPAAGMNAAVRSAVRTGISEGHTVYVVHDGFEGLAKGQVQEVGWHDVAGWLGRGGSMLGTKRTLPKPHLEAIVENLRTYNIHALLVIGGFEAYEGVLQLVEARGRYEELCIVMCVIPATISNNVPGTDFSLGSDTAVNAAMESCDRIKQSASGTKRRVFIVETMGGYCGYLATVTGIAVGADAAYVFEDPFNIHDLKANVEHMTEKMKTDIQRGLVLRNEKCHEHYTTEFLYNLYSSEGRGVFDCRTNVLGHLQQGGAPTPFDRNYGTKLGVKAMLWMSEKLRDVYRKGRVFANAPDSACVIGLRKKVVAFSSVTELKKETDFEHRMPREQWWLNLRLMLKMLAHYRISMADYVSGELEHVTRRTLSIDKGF
Excerpt: coupled enzyme assay (NADH oxidation), Ki and Hill plot on rat liver PFK (phosphofructokinase) | inhibition of rat liver PFK was of the non-competitive type (Figure 5A) and the Ki value of suramin

[3] = target: T1, Phosphofructokinase (PFK); assay: as above

SMILES	% Residual Activity / 5 [1]	Ki [2] [nM]	Ki [3] [nM]
c1ccc([C@H]2CN3CCSC3=N2)cc1 [Levamisole]	45		
Cc1ccc(C(=O)Nc2ccc(S(=O)(=O)O)c3cc(S(=O)(=O)O)cc(S(=O)(=O)O)c23)cc1NC(=O)c1cccc(NC(=O)Nc2cccc(C(=O)Nc3cc(C(=O)Nc4ccc(S(=O)(=O)O)c5cc(S(=O)(=O)O)cc(S(=O)(=O)O)c45)ccc3C)c2)c1 [suramin]		40 ± 1	1.1 ± 0.1
